According to PubChem BioAssay AID602185 (Broad Institute, 2012):
The source made the active and inactive calls.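 Rule for the calls: active = compounds curbing yeast growth with fitted half-effect dose at most twice their top tested dose; inconclusive = flat fit at 30 to 70% inhibition, or poor fit; inactive = the rest.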

Columns and labels:
[1] = Candida glabrata glucose growth inhibition – glucose medium, OD600, dry powder, dose response (AID 602185); settings: Candida glabrata growth in glucose, OD600, 48 h, hits give low values
[2] = system: Candida glabrata growth in glucose, OD600, 48 h; experiment: as above

With `NC(=O)c1cccc(C(=O)Nc2nc(-c3ccc4c(c3)CCCC4)cs2)c1` the max activity, negative = growth inhibition ([1]; at 2.6 µM) was 14.1% (inactive).

With `CN1CCN(C(c2ccc(C(F)(F)F)cc2)c2ccc3cccnc3c2O)CC1` (centres undefined) the AC50 [2] was 2.18 µM.

For `O=C(Nc1nnc(-c2ccc3c(c2)CCCC3)o1)c1ccc(Cl)cc1Cl`, the max activity, negative = growth inhibition ([1]; at 0.16 µM) was 21% (inactive).

For `Oc1c(CN2CCc3ccccc3C2)cc(Cl)c2cccnc12`, the max activity, negative = growth inhibition ([1]; at 10 µM) was 15.2% (inactive).

With `COc1ccc(-c2nnc(NC(=O)c3ccc(S(=O)(=O)N4CCCc5ccccc54)cc3)o2)cc1` the max activity, negative = growth inhibition ([1]; at 0.3 µM) was 12.6% (inactive).

In the case of `O=C(Nc1nc(-c2ccccc2)cs1)c1ccc(Br)s1`, the max activity, negative = growth inhibition ([1]; at 0.3 µM) is reported as 11.1% (inactive).

For `O=C(Nc1nnc(-c2ccc3c(c2)CCCC3)o1)c1ccccc1`, the max activity, negative = growth inhibition ([1]; at 2.6 µM) was -10.5% (inactive).

For `C=CCNC(=S)N/N=C(\C)c1ccccn1`, the AC50 [2] was 6.14 µM.

In the case of `Cc1ccc(-c2nc3c(Cl)cc(Cl)cc3c(=O)n2O)cc1`, the AC50 [2] is reported as 1.75 µM.

In the case of `CCOC(=O)N1C(=O)C2(CCCCC2)N(c2ccc(C)cc2)C1=S`, the max activity, negative = growth inhibition ([1]; at 0.08 µM) is reported as 13.5% (inactive).

For `Cc1ccc(C(=O)Nc2nc(-c3ccccn3)cs2)cc1`, the max activity, negative = growth inhibition ([1]; at 19.5 µM) was -34.8% (inactive).

With `C/C(=N\NC(=O)c1cc2ccccc2cc1O)c1ccccn1` the max activity, negative = growth inhibition ([1]; at 5 µM) was 18.8% (inactive).

With `O=C(Nc1nc(-c2ccccn2)cs1)c1ccc(Cl)s1` the AC50 [2] was 9.57 µM.

In the case of `Oc1c(C(c2ccccc2Cl)N2CCCCC2)ccc2cccnc12` (centres undefined), the max activity, negative = growth inhibition ([1]; at 19.5 µM) is reported as -24.3% (inactive).

For `Cc1cc(C)n(-c2nc3ccccc3c(=O)n2OCC#N)n1`, the max activity, negative = growth inhibition ([1]; at 19.5 µM) was -17.9% (inactive).

`CCCC(=O)NC(c1cccs1)c1cc(Cl)c2cccnc2c1O` (centres undefined) gave an AC50 [2] of 3.27 µM.

In the case of `Oc1c(CN2CCN(c3ccccc3)CC2)cc(Cl)c2cccnc12`, the max activity, negative = growth inhibition ([1]; at 0.35 µM) is reported as 12.9% (inactive).

For `Cc1ccc(C(=O)Nc2nnc(-c3ccccc3)o2)cc1C`, the max activity, negative = growth inhibition ([1]; at 0.16 µM) was 18.7% (inactive).

In the case of `Oc1c(C(c2ccc(Cl)cc2)N2CCCC2)ccc2cccnc12` (centres undefined), the max activity, negative = growth inhibition ([1]; at 1.2 µM) is reported as 12% (inactive).

Molecule `O=C(Nc1nc(-c2ccccn2)cs1)c1ccc(Br)s1` has an AC50 [2] of 8.64 µM.

For `O=C(Nc1nc(-c2ccccn2)cs1)c1ccccc1`, the max activity, negative = growth inhibition ([1]; at 19.5 µM) was -14.7% (inactive).

Molecule `O=C(Oc1c(Cl)cc(Cl)c2cccnc12)c1ccco1` has an AC50 [2] of 1.14 µM.

In the case of `O=C(Nc1nc(-c2ccc3c(c2)CCCC3)cs1)c1ccccc1`, the max activity, negative = growth inhibition ([1]; at 0.3 µM) is reported as 19.6% (inactive).

Work on `O=C(NNC(=S)Nc1ccc(Cl)c(Cl)c1)c1ccccn1` yielded an AC50 [2] of 10.1 µM.
